Where two headings read alike, the source gives them in different places. Bridge positions count the residues as written; N and C are the ends. Square brackets hold non-standard residues; d marks the D form. Peptide text beside a SMILES is read from it. Phe(4-NO2) = N[C@@H](Cc1ccc([N+](=O)[O-])cc1)C(=O)O; Phe(4-F) = N[C@@H](Cc1ccc(F)cc1)C(=O)O; Phe(4-Me) = Cc1ccc(C[C@H](N)C(=O)O)cc1; Aad = N[C@@H](CCCC(=O)O)C(=O)O; Nle = CCCC[C@H](N)C(=O)O
Assays:
[1] = biological target: T1, human Kv1.3 voltage-gated K+ channel (Homo sapiens, UniProt P22001); assay: cell-based; conditions: inhibition of thallium flux, CHO-DUKX cells with human Kv1.3; read-out: IC50
T1 construct: host or cells: CHO-DUKX
T1 sequence (P22001 whole entry): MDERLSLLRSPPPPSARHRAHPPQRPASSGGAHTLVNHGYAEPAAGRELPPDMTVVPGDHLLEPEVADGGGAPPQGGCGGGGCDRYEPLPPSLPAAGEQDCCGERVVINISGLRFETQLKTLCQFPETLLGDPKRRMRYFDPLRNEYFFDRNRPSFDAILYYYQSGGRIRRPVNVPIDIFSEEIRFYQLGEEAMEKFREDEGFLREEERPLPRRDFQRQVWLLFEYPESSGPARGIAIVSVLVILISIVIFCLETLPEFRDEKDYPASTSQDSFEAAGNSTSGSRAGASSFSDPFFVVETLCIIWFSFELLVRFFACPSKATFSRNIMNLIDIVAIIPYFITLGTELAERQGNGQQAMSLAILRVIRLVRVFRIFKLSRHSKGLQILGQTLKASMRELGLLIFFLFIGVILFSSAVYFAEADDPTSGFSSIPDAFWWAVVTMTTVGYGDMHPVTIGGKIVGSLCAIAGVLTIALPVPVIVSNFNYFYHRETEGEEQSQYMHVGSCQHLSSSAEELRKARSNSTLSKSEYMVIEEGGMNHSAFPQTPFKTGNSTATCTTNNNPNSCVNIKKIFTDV

[2] = biological target: Rat whole blood (Rattus norvegicus, UniProt P15384)
Chain of Rat whole blood (P15384 whole entry): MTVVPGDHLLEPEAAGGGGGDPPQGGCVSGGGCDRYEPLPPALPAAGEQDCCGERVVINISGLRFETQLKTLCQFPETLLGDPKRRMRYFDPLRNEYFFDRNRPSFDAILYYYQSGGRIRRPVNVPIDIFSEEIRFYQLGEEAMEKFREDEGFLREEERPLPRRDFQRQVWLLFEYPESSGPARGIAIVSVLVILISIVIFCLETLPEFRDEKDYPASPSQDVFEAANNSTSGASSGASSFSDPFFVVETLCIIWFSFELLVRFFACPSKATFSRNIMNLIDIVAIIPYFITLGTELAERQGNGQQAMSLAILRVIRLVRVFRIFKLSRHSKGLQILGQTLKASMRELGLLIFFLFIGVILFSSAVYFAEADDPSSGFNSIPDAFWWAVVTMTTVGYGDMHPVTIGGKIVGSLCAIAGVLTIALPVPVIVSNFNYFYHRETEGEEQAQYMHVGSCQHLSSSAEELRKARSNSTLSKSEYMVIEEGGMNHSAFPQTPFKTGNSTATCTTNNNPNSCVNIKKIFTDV

[3] = inhibition of IL-17A release, thapsigargin, 24 Hr, at least 2 replicates

Row | Structure (SMILES) | IC50 [1] [nM] | IC50 [2] [nM] | IC50 [2, 3] [nM]
1 | CCCC[C@@H]1NC(=O)[C@@H]2CSSC[C@H](NC(=O)[C@H](CCCNC(=N)N)NC(=O)[C@H](CCCC)NC(=O)[C@H](CC(=O)O)NC(=O)[C@H](CCCC)NC(=O)[C@@H](N)CO)C(=O)N[C@@H](CO)C(=O)N[C@@H](C)C(=O)N[C@@H](CO)C(=O)N[C@@H](C(C)C)C(=O)N[C@@H](CCC(=O)O)C(=O)N[C@H]3CSSC[C@H](NC(=O)[C@H](CCCCN)NC(=O)[C@H](CCCCN)NC(=O)[C@H](CC(N)=O)NC1=O)C(=O)N[C@@H](CCCCN)C(=O)N[C@H](C(=O)N[C@@H](Cc1ccc(O)cc1)C(=O)N1CCC[C@H]1C(=O)N[C@@H](CCCNC(=N)N)C(N)=O)CSSC[C@H](NC(=O)[C@H](CCCCN)NC(=O)[C@H](CCC(=O)O)NC(=O)[C@H](CCCCN)NC3=O)C(=O)N[C@@H](CC(C)C)C(=O)N[C@@H](CCC(N)=O)C(=O)N[C@@H](C)C(=O)N[C@@H]([C@@H](C)CC)C(=O)NCC(=O)N[C@@H](CO)C(=O)N[C@@H]([C@@H](C)CC)C(=O)N[C@@H](Cc1ccccc1)C(=O)NCC(=O)N[C@@H](CCCCN)C(=O)N2 [Compound 84] (H-S[Nle]D[Nle]RCSASVECKEKCLQAIGSIFGKC[Nle]NKKCKCYPR-NH2; disulfide 6-27, 12-32, 16-34) | 0.084 | ≤ 1 | 0.69
2 | CCCC[C@H](NC(=O)[C@@H]1CCCN1)C(=O)N[C@@H](CC(=O)O)C(=O)N[C@@H](CCCC)C(=O)N[C@@H](CCCNC(=N)N)C(=O)N[C@H]1CSSC[C@@H]2NC(=O)[C@H](CCCCN)NC(=O)CNC(=O)[C@H](Cc3ccccc3)NC(=O)[C@H]([C@@H](C)CC)NC(=O)[C@H](CO)NC(=O)CNC(=O)[C@H]([C@@H](C)CC)NC(=O)[C@H](C)NC(=O)[C@H](CCCC(N)=O)NC(=O)[C@H](CC(C)C)NC(=O)[C@@H]3CSSC[C@@H](C(=O)N[C@@H](Cc4ccc(O)cc4)C(=O)N4CCC[C@H]4C(=O)N[C@@H](CCCNC(=N)N)C(N)=O)NC(=O)[C@H](CCCCN)NC(=O)[C@H](CSSC[C@H](NC(=O)[C@H](CCC(=O)O)NC(=O)[C@H](C(C)C)NC(=O)[C@H](CO)NC(=O)[C@H](C)NC(=O)[C@H](CO)NC1=O)C(=O)N[C@@H](CCCCN)C(=O)N[C@@H](CCC(=O)O)C(=O)N[C@@H](CCCCN)C(=O)N3)NC(=O)[C@H](CCCCN)NC(=O)[C@H](CCCCN)NC(=O)[C@H](CC(N)=O)NC(=O)[C@H](CCCC)NC2=O [Compound 85] (H-P[Nle]D[Nle]RCSASVECKEKCL[Aad](NH2)AIGSIFGKC[Nle]NKKCKCYPR-NH2; disulfide 6-27, 12-32, 16-34) | 0.15 |  | 1.4
3 | CCCC[C@@H]1NC(=O)[C@@H]2CSSC[C@H](N)C(=O)N[C@@H](CO)C(=O)N[C@@H](C)C(=O)N[C@@H](CO)C(=O)N[C@@H](C(C)C)C(=O)N[C@@H](CCC(=O)O)C(=O)N[C@H]3CSSC[C@H](NC(=O)[C@H](CCCCN)NC(=O)[C@H](CCCCN)NC(=O)[C@H](CC(N)=O)NC1=O)C(=O)N[C@@H](CCCCN)C(=O)N[C@H]1CSSC[C@H](NC(=O)[C@H](CCCCN)NC(=O)[C@H](CCC(N)=O)NC(=O)[C@H](CCCCN)NC3=O)C(=O)N[C@@H](CC(C)C)C(=O)N[C@@H](CCCCN)C(=O)N[C@@H](C)C(=O)N[C@@H]([C@@H](C)CC)C(=O)NCC(=O)N[C@@H](CSSC[C@@H](C(N)=O)NC(=O)[C@@H]3CCCN3C(=O)[C@H](Cc3ccc(O)cc3)NC1=O)C(=O)N[C@@H]([C@@H](C)CC)C(=O)N[C@@H](Cc1ccccc1)C(=O)NCC(=O)N[C@@H](CCCCN)C(=O)N2 [Compound 86] (H-CSASVECKQKCLKAIGCIFGKC[Nle]NKKCKCYPC-NH2; disulfide 1-22, 7-27, 11-29, 17-32) | 0.2 |  | 1.1
4 | CCCC[C@@H]1NC(=O)[C@@H]2CSSC[C@H](NC(=O)[C@H](CCCNC(=N)N)NC(=O)[C@H](CCCC)NC(=O)[C@H](CC(=O)O)NC(=O)[C@H](CCCC)NC(=O)[C@@H](N)CO)C(=O)N[C@@H](CO)C(=O)N[C@@H](C)C(=O)N[C@@H](CO)C(=O)N[C@@H](C(C)C)C(=O)N[C@@H](CCC(=O)O)C(=O)N[C@H]3CSSC[C@H](NC(=O)[C@H](CCCCN)NC(=O)[C@H](CCCCN)NC(=O)[C@H](CC(N)=O)NC1=O)C(=O)N[C@@H](CCCCN)C(=O)N[C@H]1CSSC[C@H](NC(=O)[C@H](CCCCN)NC(=O)[C@H](CCC(N)=O)NC(=O)[C@H](CCCCN)NC3=O)C(=O)N[C@@H](CC(C)C)C(=O)N[C@@H](C)C(=O)N[C@@H](C)C(=O)N[C@@H]([C@@H](C)CC)C(=O)NCC(=O)N[C@@H](CSSC[C@@H](C(N)=O)NC(=O)[C@@H]3CCCN3C(=O)[C@H](Cc3ccc(O)cc3)NC1=O)C(=O)N[C@@H]([C@@H](C)CC)C(=O)N[C@@H](Cc1ccccc1)C(=O)NCC(=O)N[C@@H](CCCCN)C(=O)N2 [Compound 87] (H-S[Nle]D[Nle]RCSASVECKQKCLAAIGCIFGKC[Nle]NKKCKCYPC-NH2; disulfide 6-27, 12-32, 16-34, 22-37) | 0.1 | ≤ 1 | 0.73
5 | CCCC[C@H](NC(=O)[C@@H]1CCCN1)C(=O)N[C@@H](CC(=O)O)C(=O)N[C@@H](CCCC)C(=O)N[C@@H](CCCNC(=N)N)C(=O)N[C@H]1CSSC[C@@H]2NC(=O)[C@H](CCCCN)NC(=O)CNC(=O)[C@H](Cc3ccccc3)NC(=O)[C@H]([C@@H](C)CC)NC(=O)[C@@H]3CSSC[C@@H](C(=O)O)NC(=O)[C@@H]4CCCN4C(=O)[C@H](Cc4ccc(O)cc4)NC(=O)[C@@H]4CSSC[C@H](NC(=O)[C@H](CCCCN)NC(=O)[C@H](CCC(N)=O)NC(=O)[C@H](CCCCN)NC(=O)[C@H](CSSC[C@H](NC(=O)[C@H](CCCCN)NC(=O)[C@H](CCCCN)NC(=O)[C@H](CC(N)=O)NC(=O)[C@H](CCCC)NC2=O)C(=O)N[C@@H](CCCCN)C(=O)N4)NC(=O)[C@H](CCC(=O)O)NC(=O)[C@H](C(C)C)NC(=O)[C@H](CO)NC(=O)[C@H](C)NC(=O)[C@H](CO)NC1=O)C(=O)N[C@@H](CC(C)C)C(=O)N[C@@H](CCCCN)C(=O)N[C@@H](C)C(=O)N[C@@H]([C@@H](C)CC)C(=O)NCC(=O)N3 [Compound 88] (H-P[Nle]D[Nle]RCSASVECKQKCLKAIGCIFGKC[Nle]NKKCKCYPC-OH; disulfide 6-27, 12-32, 16-34, 22-37) | 0.27 |  | 1.1
6 | CCCC[C@H](NC(=O)[C@H](CC(=O)O)NC(=O)[C@H](CCCC)NC(=O)[C@@H](N)CO)C(=O)N[C@@H](CCCNC(=N)N)C(=O)N[C@H]1CSSC[C@@H]2NC(=O)[C@H](CCCCN)NC(=O)CNC(=O)[C@H](Cc3ccccc3)NC(=O)[C@H]([C@@H](C)CC)NC(=O)[C@H](CO)NC(=O)CNC(=O)[C@H]([C@@H](C)CC)NC(=O)[C@H](C)NC(=O)[C@H](CCCCN)NC(=O)[C@H](CC(C)C)NC(=O)[C@@H]3CSSC[C@@H](C(=O)N[C@@H](Cc4ccc(F)cc4)C(=O)N4CCC[C@H]4C(=O)N[C@@H](CCCNC(=N)N)C(N)=O)NC(=O)[C@H](CCCCN)NC(=O)[C@H](CSSC[C@H](NC(=O)[C@H](CCC(=O)O)NC(=O)[C@H](C(C)C)NC(=O)[C@H](CO)NC(=O)[C@H](C)NC(=O)[C@H](CO)NC1=O)C(=O)N[C@@H](CCCCN)C(=O)N[C@@H](CCC(N)=O)C(=O)N[C@@H](CCCCN)C(=O)N3)NC(=O)[C@H](CCCCN)NC(=O)[C@H](CCCCN)NC(=O)[C@H](CC(N)=O)NC(=O)[C@H](CCSC)NC2=O [Compound 91] (H-S[Nle]D[Nle]RCSASVECKQKCLKAIGSIFGKCMNKKCKC[Phe(4-F)]PR-NH2; disulfide 6-27, 12-32, 16-34) | 0.1 | ≤ 1 | 0.34
7 | CCCC[C@H](NC(=O)[C@H](CC(=O)O)NC(=O)[C@H](CCCC)NC(=O)[C@@H](N)CO)C(=O)N[C@@H](CCCNC(=N)N)C(=O)N[C@H]1CSSC[C@@H]2NC(=O)[C@H](CCCCN)NC(=O)CNC(=O)[C@H](Cc3ccccc3)NC(=O)[C@H]([C@@H](C)CC)NC(=O)[C@H](CO)NC(=O)CNC(=O)[C@H]([C@@H](C)CC)NC(=O)[C@H](C)NC(=O)[C@H](CCCCN)NC(=O)[C@H](CC(C)C)NC(=O)[C@@H]3CSSC[C@@H](C(=O)N[C@@H](Cc4ccc([N+](=O)[O-])cc4)C(=O)N4CCC[C@H]4C(=O)N[C@@H](CCCNC(=N)N)C(N)=O)NC(=O)[C@H](CCCCN)NC(=O)[C@H](CSSC[C@H](NC(=O)[C@H](CCC(=O)O)NC(=O)[C@H](C(C)C)NC(=O)[C@H](CO)NC(=O)[C@H](C)NC(=O)[C@H](CO)NC1=O)C(=O)N[C@@H](CCCCN)C(=O)N[C@@H](CCC(N)=O)C(=O)N[C@@H](CCCCN)C(=O)N3)NC(=O)[C@H](CCCCN)NC(=O)[C@H](CCCCN)NC(=O)[C@H](CC(N)=O)NC(=O)[C@H](CCSC)NC2=O [Compound 92] (H-S[Nle]D[Nle]RCSASVECKQKCLKAIGSIFGKCMNKKCKC[Phe(4-NO2)]PR-NH2; disulfide 6-27, 12-32, 16-34) | 0.49 |  | 1.3
8 | CCCC[C@H](NC(=O)[C@H](CC(=O)O)NC(=O)[C@H](CCCC)NC(=O)[C@@H](N)CO)C(=O)N[C@@H](CCCNC(=N)N)C(=O)N[C@H]1CSSC[C@@H]2NC(=O)[C@H](CCCCN)NC(=O)CNC(=O)[C@H](Cc3ccccc3)NC(=O)[C@H]([C@@H](C)CC)NC(=O)[C@H](CO)NC(=O)CNC(=O)[C@H]([C@@H](C)CC)NC(=O)[C@H](C)NC(=O)[C@H](CCCCN)NC(=O)[C@H](CC(C)C)NC(=O)[C@@H]3CSSC[C@@H](C(=O)N[C@@H](Cc4ccc(C)cc4)C(=O)N4CCC[C@H]4C(=O)N[C@@H](CCCNC(=N)N)C(N)=O)NC(=O)[C@H](CCCCN)NC(=O)[C@H](CSSC[C@H](NC(=O)[C@H](CCC(=O)O)NC(=O)[C@H](C(C)C)NC(=O)[C@H](CO)NC(=O)[C@H](C)NC(=O)[C@H](CO)NC1=O)C(=O)N[C@@H](CCCCN)C(=O)N[C@@H](CCC(N)=O)C(=O)N[C@@H](CCCCN)C(=O)N3)NC(=O)[C@H](CCCCN)NC(=O)[C@H](CCCCN)NC(=O)[C@H](CC(N)=O)NC(=O)[C@H](CCSC)NC2=O [Compound 93] (H-S[Nle]D[Nle]RCSASVECKQKCLKAIGSIFGKCMNKKCKC[Phe(4-Me)]PR-NH2; disulfide 6-27, 12-32, 16-34) | 0.13 |  | 0.54

From patent US11780893B2, “Kv1.3 blockers” (Zealand Pharma A/S, priority 2019, dated 2023)
